Test results from patent US20130012483A1, “NOVEL PHARMACEUTICAL COMPOSITION FOR THE TREATMENT OF NEURODEGENERATIVE OR NEUROVASCULAR DISEASES” (priority 2010, published 2013).

Tested on: elderly patients suffering from Alzheimer disease or related disorders (ADRD)
Assay: Before-after clinical study: change in global cognitive performance by Mini-Mental State Examination (MMSE)
Format: in vivo, human
Conditions: for Change in MMSE score, mean ± SD (MMSE score after treatment − MMSE score before treatment): between-visits change, oral treatment; for MMSE score (/30 points), mean ± SD after treatment: first follow-up visit, oral vitamin D3 800-3500 IU per day and/or memantine 5-20 mg per day, mean time between visits 0.6±0.4 years
Experimental: Based on a before-after designed study, we compared the change in global cognitive performance using the Mini-Mental State Examination (MMSE) among elderly patients suffering from Alzheimer disease or related disorders (ADRD).
Three different treatments were administered to these patients: • vitamin D3 alone, • memantine alone, • vitamin D3 in combination with memantine.
All patients suffering from ADRD who were prescribed memantine and/or vitamin D3 with no cerebral vasodilatators and no anticholinesterasics (i.e., donepezil, galantamine or rivastigmine) at the University Memory Center of Angers University Hospital, France and who had at least one follow-up visit, were enrolled in this study.
The MMSE score was used to assess global cognitive performance during the study and was completed at baseline (i.e., before the drug prescription) and during the first follow-up visit. MMSE is a well-established measure of cognitive function in elderly people (see for example Folstein M F, Folstein S E, et al., Mini-Mental State: A practical method for grading the cognitive state of patients for the clinician; Journal of Psychiatric Research 1975; 12: 189-198; or Kalafat L, Hugonot-Diener L, Poitrenaud J., Standardisation et étalonnage français du<<Mini Mental State>>version Greco; Neuropsychol Rev 2003; 13: 209-236). It is a brief, practical screening test for cognitive dysfunction composed of five sections (orientation, registration, attention—calculation, recall, and language). […] Scores range from 30 (unimpaired) to 0 (impaired). The change in MMSE score was used to assess the change in cognitive performance after the introduction of the drug(s).
Subjects were prescribed either vitamin D3 alone, memantine alone, or Vitamin D3 in combination with memantine.
Vitamin D3 was administered orally either daily or monthly. Dosage of vitamin D3 ranges between 800 and 3500 IU per day.
Memantine was administered orally every day at once. Dosage ranges from 5 to 20 mg per day.
Age, gender, the MMSE score at baseline assessment as well as the time between two visits expressed in years (corresponding to the duration of treatment) were used as co-variables.
The subjects' baseline characteristics were summarized using means and standard deviations or frequencies and percentages, as appropriate. First, comparisons between subjects separated into three groups corresponding to the three treatments administered (i.e., vitamin D3 alone, memantine alone and Vitamin D3 in combination with memantine) were performed using the Chi-square test or the Kruskal-Wallis test, as appropriate. To address the problem of multiple comparisons, analyses were completed by a post hoc Bonferonni test.
Second, multiple linear regression analyses (i.e., fully adjusted method) were performed to examine the association between the change in MMSE score (dependent variable) and the use of vitamin D3 in combination with memantine (independent variable), after adjustment for clinical characteristics.
Three models were performed: • first, we examined the between-visits change in MMSE score taking as reference group the subjects using vitamin D3 alone; • second, we performed the same analysis taking as reference group the subjects using memantine alone; and • third, taking as reference group the subjects using vitamin D3 or memantine.

Row | SMILES | points lost in MMSE score on average (between visits, printed as a loss) [points] | Change in MMSE score, mean ± SD (MMSE score after treatment − MMSE score before treatment) [points] | MMSE score (/30 points), mean ± SD after treatment [points] | Change in MMSE score, mean ± SD (MMSE score after treatment − MMSE score before treatment) (listed as memantine) [points]
1 | C=C1CC[C@H](O)C/C1=C/C=C1\CCC[C@]2(C)[C@@H]([C@H](C)CCCC(C)C)CC[C@@H]12 [V. D3, cholecalciferol] | 0.6±3.1 | −0.6 ± 3.1 | 17.7 ± 6.5 | 
2 | CC12CC3CC(C)(C1)CC(N)(C3)C2 [M., 3,5-dimethyltricyclo[3.3.1.1]decylamine] |  | −0.0 ± 1.8 | 16.1 ± 5.1 | 0.0±1.8
